Organism: Rattus norvegicus
Experiment: DrugMatrix - Regimen: Daily Repeat
Assay type: toxicity, organism-based, Sprague-Dawley
Design: regimen Daily Repeat, gender Male, age 6-8 weeks
Settings: in vivo, po, route oral GAVAGE, vehicle 100 % SALINE; for ABSOLUTE BASOPHIL / ABSOLUTE EOSINOPHIL / ABSOLUTE LYMPHOCYTE / ABSOLUTE MONOCYTE / ABSOLUTE SEGMENTED NEUTROPHIL / BASOPHIL / EOSINOPHIL / ERYTHROCYTE COUNT / HEMATOCRIT / HEMOGLOBIN / LEUKOCYTE COUNT / LYMPHOCYTE / MEAN CORPUSCULAR HEMOGLOBIN / MEAN CORPUSCULAR HEMOGLOBIN CONCENTRATION / MEAN CORPUSCULAR VOLUME / MONOCYTE / NEUTROPHIL / NUCLEATED RED BLOOD CELLS / PLATELET COUNT: tissue Blood; for ALANINE AMINOTRANSFERASE / ALBUMIN / ALKALINE PHOSPHATASE / ASPARTATE AMINOTRANSFERASE / BLOOD UREA NITROGEN / CARBON DIOXIDE / CHLORIDE / CHOLESTEROL / CREATINE PHOSPHOKINASE / CREATININE / GLUCOSE / LACTATE DEHYDROGENASE / LIPASE / PHOSPHORUS / POTASSIUM / SODIUM / TOTAL BILIRUBIN / TOTAL PROTEIN / URIC ACID: tissue Plasma
[1] = 0 mg/kg, 72 h, dose level Control, time 3 day
[2] = 0 mg/kg, 120 h, dose level Control, time 5 day
[3] = […], 72 h, dose 2.3 mg/Kg, dose level Low, time 3 day
[4] = […], 120 h, dose 2.3 mg/Kg, dose level Low, time 5 day

CC(CN1c2ccccc2Sc2ccccc21)N(C)C (configuration not stated) [PROMETHAZINE]
ABSOLUTE BASOPHIL [1]: 0 CELLS/uL
ABSOLUTE EOSINOPHIL [1]: 65.67 CELLS/uL
ABSOLUTE LYMPHOCYTE [1]: 17283.5 CELLS/uL
ABSOLUTE MONOCYTE [1]: 0 CELLS/uL
ABSOLUTE SEGMENTED NEUTROPHIL [1]: 1284.17 CELLS/uL
BASOPHIL [1]: 0%
EOSINOPHIL [1]: 0.33%
ERYTHROCYTE COUNT [1]: 5.46 x10E6/uL
HEMATOCRIT [1]: 34.28%
HEMOGLOBIN [1]: 13.78 G/DL
LEUKOCYTE COUNT [1]: 18.63 x10E3/uL
LYMPHOCYTE [1]: 92.67%
MEAN CORPUSCULAR HEMOGLOBIN [1]: 25.3 pg
MEAN CORPUSCULAR HEMOGLOBIN CONCENTRATION [1]: 40.22 G/DL
MEAN CORPUSCULAR VOLUME [1]: 62.87 fL
MONOCYTE [1]: 0%
NEUTROPHIL [1]: 7%
NUCLEATED RED BLOOD CELLS [1]: 0 /100WBC
PLATELET COUNT [1]: 1244.83 x10E3/uL
ALANINE AMINOTRANSFERASE [1]: 52.83 u/L
ALBUMIN [1]: 4 G/DL
ALKALINE PHOSPHATASE [1]: 327.67 u/L
ASPARTATE AMINOTRANSFERASE [1]: 78.83 u/L
BLOOD UREA NITROGEN [1]: 13.83 mg/dL
CARBON DIOXIDE [1]: 26.67 mmol/L
CHLORIDE [1]: 99.67 MEQ/L
CHOLESTEROL [1]: 69 mg/dL
CREATINE PHOSPHOKINASE [1]: 350.17 u/L
CREATININE [1]: 0.21 mg/dL
GLUCOSE [1]: 173.83 mg/dL
LACTATE DEHYDROGENASE [1]: 168.33 u/L
LIPASE [1]: 11 u/L
PHOSPHORUS [1]: 12.7 mg/dL
POTASSIUM [1]: 6.88 MEQ/L
SODIUM [1]: 141.68 MEQ/L
TOTAL BILIRUBIN [1]: 0.22 mg/dL
TOTAL PROTEIN [1]: 6.02 G/DL
URIC ACID [1]: 1.9 mg/dL
ABSOLUTE BASOPHIL [2]: 0 CELLS/uL
ABSOLUTE EOSINOPHIL [2]: 14.83 CELLS/uL
ABSOLUTE LYMPHOCYTE [2]: 12880 CELLS/uL
ABSOLUTE MONOCYTE [2]: 90.67 CELLS/uL
ABSOLUTE SEGMENTED NEUTROPHIL [2]: 864.5 CELLS/uL
BASOPHIL [2]: 0%
EOSINOPHIL [2]: 0.17%
ERYTHROCYTE COUNT [2]: 5.83 x10E6/uL
HEMATOCRIT [2]: 35.87%
HEMOGLOBIN [2]: 14 G/DL
LEUKOCYTE COUNT [2]: 13.85 x10E3/uL
LYMPHOCYTE [2]: 92.5%
MEAN CORPUSCULAR HEMOGLOBIN [2]: 24.03 pg
MEAN CORPUSCULAR HEMOGLOBIN CONCENTRATION [2]: 39.03 G/DL
MEAN CORPUSCULAR VOLUME [2]: 61.53 fL
MONOCYTE [2]: 0.67%
NEUTROPHIL [2]: 6.67%
NUCLEATED RED BLOOD CELLS [2]: 0 /100WBC
PLATELET COUNT [2]: 1041.83 x10E3/uL
ALANINE AMINOTRANSFERASE [2]: 56 u/L
ALBUMIN [2]: 4.47 G/DL
ALKALINE PHOSPHATASE [2]: 319 u/L
ASPARTATE AMINOTRANSFERASE [2]: 89.17 u/L
BLOOD UREA NITROGEN [2]: 15.2 mg/dL
CARBON DIOXIDE [2]: 24 mmol/L
CHLORIDE [2]: 104.4 MEQ/L
CHOLESTEROL [2]: 69.5 mg/dL
CREATINE PHOSPHOKINASE [2]: 295.83 u/L
CREATININE [2]: 0.21 mg/dL
GLUCOSE [2]: 124.33 mg/dL
LACTATE DEHYDROGENASE [2]: 325.5 u/L
LIPASE [2]: 14.67 u/L
PHOSPHORUS [2]: 11.45 mg/dL
POTASSIUM [2]: 6.74 MEQ/L
SODIUM [2]: 151.4 MEQ/L
TOTAL BILIRUBIN [2]: 0.23 mg/dL
TOTAL PROTEIN [2]: 6.45 G/DL
URIC ACID [2]: 1.18 mg/dL
ABSOLUTE BASOPHIL [3]: 0 CELLS/uL
ABSOLUTE EOSINOPHIL [3]: 137 CELLS/uL
ABSOLUTE LYMPHOCYTE [3]: 14557.33 CELLS/uL
ABSOLUTE MONOCYTE [3]: 165.33 CELLS/uL
ABSOLUTE SEGMENTED NEUTROPHIL [3]: 1673.67 CELLS/uL
BASOPHIL [3]: 0%
EOSINOPHIL [3]: 1%
ERYTHROCYTE COUNT [3]: 5.52 x10E6/uL
HEMATOCRIT [3]: 34.93%
HEMOGLOBIN [3]: 13.67 G/DL
LEUKOCYTE COUNT [3]: 16.53 x10E3/uL
LYMPHOCYTE [3]: 88.33%
MEAN CORPUSCULAR HEMOGLOBIN [3]: 24.8 pg
MEAN CORPUSCULAR HEMOGLOBIN CONCENTRATION [3]: 39.13 G/DL
MEAN CORPUSCULAR VOLUME [3]: 63.3 fL
MONOCYTE [3]: 1%
NEUTROPHIL [3]: 9.67%
NUCLEATED RED BLOOD CELLS [3]: 0 /100WBC
PLATELET COUNT [3]: 1282.33 x10E3/uL
ALANINE AMINOTRANSFERASE [3]: 48 u/L
ALBUMIN [3]: 4.07 G/DL
ALKALINE PHOSPHATASE [3]: 265 u/L
ASPARTATE AMINOTRANSFERASE [3]: 76 u/L
BLOOD UREA NITROGEN [3]: 13.67 mg/dL
CARBON DIOXIDE [3]: 25.33 mmol/L
CHLORIDE [3]: 102 MEQ/L
CHOLESTEROL [3]: 62.67 mg/dL
CREATINE PHOSPHOKINASE [3]: 306.33 u/L
CREATININE [3]: 0.2 mg/dL
GLUCOSE [3]: 164.67 mg/dL
LACTATE DEHYDROGENASE [3]: 197.33 u/L
LIPASE [3]: 10.33 u/L
PHOSPHORUS [3]: 11.33 mg/dL
POTASSIUM [3]: 6.26 MEQ/L
SODIUM [3]: 142.7 MEQ/L
TOTAL BILIRUBIN [3]: 0.2 mg/dL
TOTAL PROTEIN [3]: 5.87 G/DL
URIC ACID [3]: 1.63 mg/dL
ABSOLUTE BASOPHIL [4]: 0 CELLS/uL
ABSOLUTE EOSINOPHIL [4]: 47.67 CELLS/uL
ABSOLUTE LYMPHOCYTE [4]: 14175.67 CELLS/uL
ABSOLUTE MONOCYTE [4]: 210 CELLS/uL
ABSOLUTE SEGMENTED NEUTROPHIL [4]: 1533.33 CELLS/uL
BASOPHIL [4]: 0%
EOSINOPHIL [4]: 0.33%
ERYTHROCYTE COUNT [4]: 5.54 x10E6/uL
HEMATOCRIT [4]: 35.6%
HEMOGLOBIN [4]: 13.8 G/DL
LEUKOCYTE COUNT [4]: 15.97 x10E3/uL
LYMPHOCYTE [4]: 89%
MEAN CORPUSCULAR HEMOGLOBIN [4]: 24.93 pg
MEAN CORPUSCULAR HEMOGLOBIN CONCENTRATION [4]: 38.77 G/DL
MEAN CORPUSCULAR VOLUME [4]: 64.27 fL
MONOCYTE [4]: 1.33%
NEUTROPHIL [4]: 9.33%
NUCLEATED RED BLOOD CELLS [4]: 0 /100WBC
PLATELET COUNT [4]: 1323 x10E3/uL
ALANINE AMINOTRANSFERASE [4]: 48.67 u/L
ALBUMIN [4]: 4.2 G/DL
ALKALINE PHOSPHATASE [4]: 312 u/L
ASPARTATE AMINOTRANSFERASE [4]: 76.33 u/L
BLOOD UREA NITROGEN [4]: 12.67 mg/dL
CARBON DIOXIDE [4]: 22 mmol/L
CHLORIDE [4]: 103.67 MEQ/L
CHOLESTEROL [4]: 67.67 mg/dL
CREATINE PHOSPHOKINASE [4]: 212 u/L
CREATININE [4]: 0.17 mg/dL
GLUCOSE [4]: 187 mg/dL
LACTATE DEHYDROGENASE [4]: 113 u/L
LIPASE [4]: 9 u/L
PHOSPHORUS [4]: 11.2 mg/dL
POTASSIUM [4]: 6.01 MEQ/L
SODIUM [4]: 144.6 MEQ/L
TOTAL BILIRUBIN [4]: 0.17 mg/dL
TOTAL PROTEIN [4]: 6.07 G/DL
URIC ACID [4]: 2.13 mg/dL
